# Measured values taken from patent publication US6538023B1, “Therapeutic uses of green tea polyphenols for sickle cell disease” (priority 2000, dated 2003).
# Entries after “also recorded” stand apart in the source; their conditions may differ.
# Test system: sickle red blood cells (K-Cl cotransport)
# Test: Inhibition of dense cell formation triggered by 500 mM urea (K-Cl cotransport) in sickle red blood cells
# Format: cell-based, human
# Conditions: 37 centigrade, 3 hours; for inhibition of dense cell formation (FIG. 4): 0.6 mM, oxygenated and deoxygenated conditions; for inhibition of dense cell formation: hematocrit 2%
# Experimental: The reaction medium consists of: 150 mM NaCl, 1 mM MgSO4, 10 mM HEPES buffer and 10 mM glucose. The osmolarity of the medium was adjusted to 290 mOsm/kg using a freezing point osmometer and the pH was adjusted to 7.4
# For in vitro tests, blood was obtained from adult sickle cell patients (using acid-citrate-dextrose as an anticoagulant) whose hemoglobin F content is less than 1% and whose content of irreversibly sickled cells is less than 10%. The blood could be used for 2 days as long as the air-space of the container was equilibrated with 95% air/5% CO2 and the container was gently tumbled (1 to 2 rpm) at 4° C.
# Four ml of the density gradient solution (density=1.104) was poured into each of 15 ml COREX centrifuge tubes (Corning Glass), and the tubes were spun at 10,000 rpm for 5 min, by which a density gradient was automatically formed. Then, 100 μl of blood was overlayered on top of each pre-formed density gradient, and the tubes were span for 10 minutes at 2,500 rpm using a low speed centrifuge with a swing rotor.
# When red blood cells of normal subject with normal hemoglobin were spun, they all stayed near a top portion of the gradient (FIG. 2A). […] Then, the red blood cells in the top layer of each tubes, which consists of “non-dense cells”, were collected, washed with the reaction medium, resuspended in the same medium, and used for the experiments.
# As described above, tubes each containing 4 ml of the density gradient solution with the density of 1.104 were spun at 12,000 rpm for 5 min to form gradient density. K-Cl cotransport experiments were conducted by incubating a suspension of “non-dense cells” with the hematocrit value of 2% at 37 centigrade for 3 hours. Then, 50 μl of each non-dense cell suspension was overlayered on top of the pre-formed density gradient, and the tubes were span for 10 minutes at 2,500 rpm using a low speed centrifuge with a swing rotor. If 500 mM urea was added before the incubation, dense cells were formed due to the stimulation of K-Cl cotransport as shown in FIG. 2D.
# When the bottom layer was formed, red cells in both the top and bottom layers were separately collected, washed and hemolyzed in 5 mM phosphate buffer (pH 7.4) containing 0.5 mM EDTA and 0.5% of a detergent, BRIJ-30. From the hemoglobin content as determined by spectrophotometry, we determined the percentage of dense cell formation (Ohnishi, S. T. British J. Haematology 55:665-671, 1983).
# FIG. 3. Dense cells can be formed by incubating non-dense cells at 37 centigrade for 3 hours in the presence of 500 mM urea, which triggers K-Cl cotransport and concomitant dehydration. […] The formation can be inhibited by the addition of inhibitors before starting the incubation. […] However, neither 2 mM vitamin C nor 2 mM vitamin E inhibited the dense cell formation.
# FIG. 4. The inhibition of dense cell formation triggered with 500 mM urea at 37 centigrade for 3 hours by different green tea polyphenols. Open columns are for the oxygenated condition and filled columns for the deoxygenated condition. Abbreviations. CH: (+)-Catechin; EC: (−)-Epicatechin; ECg: (−)-Epicatechin gallate; EGC: (−)-Epigallocatechin; and EGCg: (−)-Epigallocatechin gallate.
molecule,measurement,setting,value
"Oc1cc(O)c2c(c1)O[C@H](c1ccc(O)c(O)c1)[C@@H](O)C2 [CH, (+)-Catechin]",inhibition of dense cell formation (FIG. 4),,no effects
"O=C(O[C@@H]1Cc2c(O)cc(O)cc2O[C@@H]1c1ccc(O)c(O)c1)c1cc(O)c(O)c(O)c1 [ECg, (−)-Epicatechin gallate]",inhibition of dense cell formation (FIG. 4),,significant effect
"Oc1cc(O)c2c(c1)O[C@H](c1cc(O)c(O)c(O)c1)[C@H](O)C2 [EGC, (−)-Epigallocatechin]",inhibition of dense cell formation (FIG. 4),,significant effect
"O=C1O[C@H]([C@@H](O)CO)C(O)=C1O [Vitamin C, reference compound]",inhibition of dense cell formation,2 mM,no inhibitory effect
"COC[C@@H]([C@H](O)[C@H](O)C(=O)NCC[C@H](C)c1nc(/C=C/C[C@@H]2O[C@]3(C[C@@H](O)[C@@H]2C)O[C@H]([C@H](C[C@H](O)[C@H](C)[C@H](O)[C@H](C)/C=C(C)/C(C)=C/C=C/C(C)=C\C#N)OC)[C@H](OP(=O)(O)O)C3(C)C)co1)N(C)C [calyculin A, reference compound]",inhibition of dense cell formation,25 nM,inhibited the dense cell formation completely
"C=C1[C@@H](O)[C@@H]2O[C@]3(CC[C@H](/C=C/[C@@H](C)[C@@H]4CC(C)=C[C@@]5(O[C@H](C[C@@](C)(O)C(=O)O)CC[C@H]5O)O4)O3)CC[C@H]2O[C@@H]1[C@@H](O)C[C@H](C)[C@H]1O[C@@]2(CCCCO2)CC[C@H]1C [okadaic acid, reference compound]",inhibition of dense cell formation,100 nM,inhibited the dense cell formation completely
(−)-Epigallocatechin gallate [EGCg],inhibition of dense cell formation (FIG. 4),,significant effect; also recorded: maximum inhibitory effect
same,inhibition of dense cell formation,0.2-0.6 mM,effectively inhibited dense cell formation
Vitamin E [reference compound],inhibition of dense cell formation,2 mM,no inhibitory effect
